Drawing on BindingDB's records for doi:10.1021/jm0005454 (Cnrs, 2002), this text covers Ki for 1 compound.

Assay [1] addresses T1, Angiotensin-converting enzyme (Rattus norvegicus, UniProt P47820).
T1 sequence (P47820 whole entry): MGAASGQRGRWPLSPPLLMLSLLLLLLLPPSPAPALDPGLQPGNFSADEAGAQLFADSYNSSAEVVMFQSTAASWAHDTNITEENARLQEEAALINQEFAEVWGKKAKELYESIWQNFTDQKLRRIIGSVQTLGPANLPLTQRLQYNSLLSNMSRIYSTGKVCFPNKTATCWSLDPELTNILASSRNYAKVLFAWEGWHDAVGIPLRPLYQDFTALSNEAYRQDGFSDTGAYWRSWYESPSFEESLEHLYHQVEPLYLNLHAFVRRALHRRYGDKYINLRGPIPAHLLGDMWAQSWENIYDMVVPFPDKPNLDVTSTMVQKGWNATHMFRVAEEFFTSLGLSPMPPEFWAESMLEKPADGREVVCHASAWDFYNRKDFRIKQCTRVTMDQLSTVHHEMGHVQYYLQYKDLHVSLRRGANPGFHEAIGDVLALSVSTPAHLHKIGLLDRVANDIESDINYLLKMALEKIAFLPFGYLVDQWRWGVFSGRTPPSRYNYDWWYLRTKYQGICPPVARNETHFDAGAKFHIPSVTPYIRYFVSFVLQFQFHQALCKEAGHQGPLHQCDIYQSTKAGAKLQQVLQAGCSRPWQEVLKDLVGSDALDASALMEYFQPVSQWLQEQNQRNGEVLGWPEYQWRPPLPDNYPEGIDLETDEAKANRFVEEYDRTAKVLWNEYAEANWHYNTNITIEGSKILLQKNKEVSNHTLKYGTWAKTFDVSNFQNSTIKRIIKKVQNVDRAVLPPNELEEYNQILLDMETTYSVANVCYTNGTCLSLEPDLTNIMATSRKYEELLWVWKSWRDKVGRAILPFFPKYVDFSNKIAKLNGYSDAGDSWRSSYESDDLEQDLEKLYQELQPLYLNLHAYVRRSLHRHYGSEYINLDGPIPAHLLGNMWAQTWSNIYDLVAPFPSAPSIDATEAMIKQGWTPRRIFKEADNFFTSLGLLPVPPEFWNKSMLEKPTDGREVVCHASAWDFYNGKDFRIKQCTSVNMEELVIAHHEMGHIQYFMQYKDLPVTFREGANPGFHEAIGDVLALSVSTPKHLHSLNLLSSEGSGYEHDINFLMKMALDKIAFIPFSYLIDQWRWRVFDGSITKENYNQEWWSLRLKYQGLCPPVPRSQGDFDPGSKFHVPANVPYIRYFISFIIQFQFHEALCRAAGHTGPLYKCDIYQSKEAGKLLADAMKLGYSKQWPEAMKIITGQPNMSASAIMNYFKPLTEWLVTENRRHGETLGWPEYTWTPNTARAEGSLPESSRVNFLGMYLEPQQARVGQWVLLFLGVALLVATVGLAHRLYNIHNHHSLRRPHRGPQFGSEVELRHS
The assay can be described thus: In Vitro Inhibition of NEP. The protocol: (§1) NEP was preincubated in black 96-well microplates with or without increasing concentrations of inhibitors. DGPA was added, and the reaction was stopped after 1 hr of incubation. The fluorescence was measured at excitation wavelength = 340 nm, emission wavelength = 530 nm.

The target in a further assay is T2, Neprilysin (Oryctolagus cuniculus, UniProt P08049).
T2 sequence (P08049 whole entry): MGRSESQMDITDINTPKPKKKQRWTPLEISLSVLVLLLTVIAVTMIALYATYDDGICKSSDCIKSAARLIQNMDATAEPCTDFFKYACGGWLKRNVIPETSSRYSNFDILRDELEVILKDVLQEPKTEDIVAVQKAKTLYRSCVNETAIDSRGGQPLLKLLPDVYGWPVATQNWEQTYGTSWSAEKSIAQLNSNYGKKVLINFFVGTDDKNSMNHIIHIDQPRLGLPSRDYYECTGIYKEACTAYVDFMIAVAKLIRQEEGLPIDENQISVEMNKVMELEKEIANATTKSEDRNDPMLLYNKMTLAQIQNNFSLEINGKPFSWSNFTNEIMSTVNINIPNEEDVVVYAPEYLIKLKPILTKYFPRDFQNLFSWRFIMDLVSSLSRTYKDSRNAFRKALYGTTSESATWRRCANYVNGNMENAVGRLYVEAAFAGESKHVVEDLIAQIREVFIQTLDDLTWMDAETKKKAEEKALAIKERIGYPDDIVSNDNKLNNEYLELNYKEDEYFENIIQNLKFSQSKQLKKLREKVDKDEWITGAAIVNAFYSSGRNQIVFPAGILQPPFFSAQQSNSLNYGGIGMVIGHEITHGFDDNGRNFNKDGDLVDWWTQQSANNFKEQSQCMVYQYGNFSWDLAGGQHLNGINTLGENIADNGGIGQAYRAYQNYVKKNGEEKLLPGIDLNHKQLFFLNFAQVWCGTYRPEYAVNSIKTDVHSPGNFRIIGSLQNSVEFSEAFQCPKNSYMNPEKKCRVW
The assay can be described thus: In Vitro Inhibition of NEP. The following applies: pH 7.4; 37 °C. The protocol: as §1

A word on the Ki: it is the equilibrium dissociation constant of an inhibitor or competing ligand from its target. For the compound `O=C(O)[C@H](Cc1c[nH]c2ccccc12)NC(=O)[C@@H](CS)[C@@H]1CCCc2ccccc21` [(2S)-3-(1H-indol-3-yl)-2-[(2S)-3-sulfanyl-2-[(1S)-1,2,3,4-tetrahydronaphthalen-1-yl]propanamido]propanoic acid], the Ki came out at 26 nM in assay [1] and 8 nM on Neprilysin.
